From patent US11478466B2, “Small molecule promoting osteoblast differentiation” (Cornell University, priority 2019, dated 2022) come the findings set out here.

For assay [1], the system named is alkaline phosphatase (ALP).
In assay [2] the test system is alkaline phosphatase (ALP). Kind of assay: Flow cytometric analysis of ALP-positive C2C12 cell population. The format is cell-based, mouse. The following applies: C2C12, day 2; baseline approximately 4% in DMSO-treated cells. As to the method: C2C12 cells were treated for 2 days with 10 μM DIPQUO or structural analogs, 1 ng/ml rhBMP4, or with inhibitors as noted in figure legends, and then fixed briefly in 70% acetone/10% formaldehyde/20% citrate. Staining was achieved using the leukocyte alkaline phosphatase kit (Sigma 86R-1KT) according to the manufacturer's instructions. Expression of ALP was confirmed and quantified by flow cytometric analysis, using an Accuri C6 flow cytometer. Briefly, control- or DIPQUO-treated C2C12 cells were detached and harvested on day 2 using PBS-based enzyme-free cell detachment solution (ThermoFisher). 2×10^5 cells were incubated on ice for 30 minutes with 10 μl APC-conjugated ALPL antibody (R&D Systems), and washed in ice-cold PBS before analysis. Live cells were gated and analyzed in CFlow Plus software and then data was converted to FlowJo to achieve publication-level resolution. […] After an additional 3 days, cells were either fixed and stained for ALP expression or analyzed for ALP activity using the AttoPhos Substrate kit. Hemagglutinin and FLAG epitope-tagged MKK3 (pMT2-HA-MKK3) and MKK6 (pcDNA3-FLAG-MKK6) constructs were obtained from Addgene and transfected into C2C12 cells using Lipofectamine LTX with Plus Reagent (ThermoFisher) according to manufacturer's instructions and cell extracts analyzed for protein expression and activity as described below.
For orientation: A flow cytometer gives signals particle by particle.

The subject of assay [3] is RAW 264.7 murine macrophage cell line. As to the kind of experiment: Osteoclast differentiation (TRAP staining, qRT-PCR) in RAW 264.7 cells. In kind it is cell-based, mouse. The procedure: To address the specificity of DIPQUO for stimulating an osteogenic versus osteoclastic program, the RAW 264.7 murine macrophage cell line was assayed for osteoclast differentiation by staining for tartrate-resistant acid phosphatase (TRAP) to distinguish multinucleated osteoclasts from macrophages. […] Thus, DIPQUO appears to be primarily supportive of osteogenesis.
The RAW 264.7 macrophage cell line was purchased from ATCC and maintained in DMEM with 10% FBS. Cells were treated with 10 μM DIPQUO or 50 ng/ml RANKL (Sigma) for 4 days. Cells were fixed in 70% acetone/10% formaldehyde/20% citrate and TRAP staining was achieved using the Leukocyte Acid Phosphatase kit (Sigma 387A-1KT).
For quantitative RT-PCR analysis of gene expression in C2C12 cultures, cells were treated for 2 days with 10 μM DIPQUO and harvested into Trizol reagent (Invitrogen). One microgram of RNA was reverse transcribed using the VILO-RT kit (Invitrogen) to generate cDNA, which was diluted 1:25 in RNase-free H2O for qPCR with Sybr green using the Roche 480 II LightCycler and the 2^−ΔΔCT method (Livak and Schmittgen, 2001). For analysis of osteoclast gene expression, RAW 264.7 cells were treated with DMSO, 50 ng/ml RANKL, or 10 μM DIPQUO for 4 days, then harvested into Trizol reagent and processed as above. Mouse qPCR primers are as follows. Runx2: F([…]) (SEQ ID NO:1); R([…]) (SEQ ID NO:2); Dlx5: F([…]) (SEQ ID NO:3); R([…]) (SEQ ID NO:4); Osterix: F([…]) (SEQ ID NO:5); R([…]) (SEQ ID NO:6); ALP: F([…]) (SEQ ID NO:7); R([…]) (SEQ ID NO:8); Osteocalcin: F([…]) (SEQ ID NO:9); R([…]) (SEQ ID NO:10); Osteoactivin: F([…]) (SEQ ID NO:11); R([…]) (SEQ ID NO:12); CTSK: F([…]) (SEQ ID NO:13); R([…]) (SEQ ID NO:14); MMP9: F([…]) (SEQ ID NO:15); R([…]) (SEQ ID NO:16); Gapdh F([…]) (SEQ ID NO:17); R([…]) (SEQ ID NO:18). RNA-seq studies were carried out with the assistance of the Weill Cornell Genomics Core Facility, using the Illumina HiSeq4000 next-generation sequencer to generate reads from cDNA libraries generated from three biological replicates of day 2 DMSO- or DIPQUO-treated C2C12 cells. […]
On the technique in general: Quantitative PCR measures a nucleic acid by following its amplification.

Assay [4] concerns alkaline phosphatase (ALP). As to the kind of experiment: cells. The following applies: Mus musculus; for activation at 10 µM: C2C12, 96 h.

pEC50: −log10 of the molar value. Like-named read-outs stand apart in the source and are kept apart here. Some results are limits rather than exact numbers.

As to `Cc1cc(C)c2[nH]c(=O)c(-c3[nH]cnc3-c3ccccc3)cc2c1` [RU-0226606, 6,8-dimethyl-3-(4-phenyl-1H-imidazol-5-yl)quinolin-2(1H)-one], in assay [1] (154-analog library, 10 μM, C2C12, duplicate), the “RFU Score (10 μM)” value is on record as 3104. The “Fluo. Z Score” value in assay [1] (SAR of library and proprietary analogs, AttoPhos assay, C2C12) was determined as 34.56 ± 1.80. Besides, in assay [1] (primary screen, 10 μM, C2C12, 4 days, Ex 450/Em 580 nm, rank in brackets not taken), the “RFU Score Threshold ≥ 800” value was 4000 (1). In assay [1] (primary screen, 10 μM, C2C12, 4 days, Z score on DMSO control wells), the “Fluorescence Z Score Threshold ≥ 10” value was 94.38 (1). Further, the “ALP-expressing fraction of the cell culture (flow cytometry)” value in assay [2] was greater than 30%. Besides, the “expression of CTSK and MMP9 (qRT-PCR)” value in assay [3] (RAW 264.7, 10 μM, 4 days) is listed as “upregulated, albeit to a lower level compared with RANKL induction”. The “TRAP staining of multinucleated osteoclasts” value in assay [3] (RAW 264.7, 4 days, DIPQUO 10 μM, RANKL 50 ng/ml) was “comparatively few TRAP-positive cells”. Further, the pEC50 in assay [4] (C2C12) is 5.03; in assay [4] (C2C12, read-out: Measured EC50), 5.07; in assay [4] (C2C12, read-out: half maximal effective concentration in C2C12 cells), 5.20. Moreover, the activation at 10 µM stood at 100% in assay [4] and 8.78% in assay [4] (read-out: NPA Score Threshold ≥ 5.0 (normalized percent activation)).
